# Reference: US9630977B2, “Cephalosporin derivatives and pharmaceutical compositions thereof” (Legochem Biosciences, Inc., priority 2011, dated 2017)
# How the values were obtained:
# Assay in all cases: In vitro antibacterial activity test (broth microdilution)
# Format in all cases: cell-based
# K. pneumoniae β10 = conditions: Klebsiella pneumoniae; K. pneumoniae β10; read-out: MIC90
# Experimental: (§1) To evaluate antibacterial activity of each of the compounds of Examples 1 to 68, in vitro antibacterial activity test was performed.
# (§2) The in vitro antibacterial activity was evaluated by measuring MIC90 (ug/mL) of each of the compounds of Examples 1 to 68, which is defined as the lowest concentration of an antibiotic that will inhibit the visible growth of 90% of microorganisms after incubation as compared with a control group to which the antibiotic is not treated. MIC90 values were measured by the broth microdilution method developed by the Clinical and Laboratory Standards Institute (CLSI) (see CLSI M7-A5, Methods for Dilution Antimicrobial Susceptibility Test for Bacteria that Grow Aerobically-Fifth Edition (2000): CLSI, Villanova, Pa.).
# (§3) In vitro antibacterial activity was measured with respect to the following 19 clinical isolates: M. catarrhalis; P. aeruginosa (5 strains); K. pneumoniae (6 strains); A. baumannii (3 strains); E. coli (2 strains); A. calcoaceticus; and E. cloacae.
# (§4) Test compounds each (the cephalosporin derivative compounds prepared in Examples 1 to 68) were dissolved in DMSO at the concentration of 10,240 ug/mL, were diluted by two fold with DMSO, and then were diluted by twenty fold with sterilized distilled water. The final concentration in the antibacterial activity test was in the range of […] to 128 ug/mL, and the final concentration of DMSO used as an adjuvant was 2.5% (V/V).
# P. aeruginosa 43 = conditions: Pseudomonas aeruginosa; P. aeruginosa 43; read-out: MIC90
# Experimental: as §1, §2, §3, §4
# K. pneumoniae β14 = conditions: Klebsiella pneumoniae, read-out: MIC90
# Experimental: as §1, §2, §3, §4
# P. aeruginosa 37 = conditions: Pseudomonas aeruginosa, 37, P. aeruginosa 37; read-out: MIC90
# Experimental: as §1, §2, §3, §4
# E. cloacae β19 = conditions: Enterobacter cloacae, read-out: MIC90
# Experimental: as §1, §2, §3, §4
# E. coli β4 = conditions: Escherichia coli, read-out: MIC90
# Experimental: as §1, §2, §3, §4
# A. baumannii 46 = conditions: Acinetobacter baumannii; A. baumannii 46; read-out: MIC90
# Experimental: as §1, §2, §3, §4
# P. aeruginosa 1912E = conditions: Pseudomonas aeruginosa, 1912E, read-out: MIC90
# Experimental: as §1, §2, §3, §4
# P. aeruginosa 6065Y = conditions: Pseudomonas aeruginosa, read-out: MIC90
# Experimental: as §1, §2, §3, §4
# A. baumannii 52 = conditions: Acinetobacter baumannii; A. baumannii 52; read-out: MIC90
# Experimental: as §1, §2, §3, §4
# K. pneumoniae β13 = conditions: Klebsiella pneumoniae, K. pneumoniae β13; read-out: MIC90
# Experimental: as §1, §2, §3, §4
# K. pneumoniae β11 = conditions: Klebsiella pneumoniae; K. pneumoniae β11; read-out: MIC90
# Experimental: as §1, §2, §3, §4
# A. baumannii 49 = conditions: Acinetobacter baumannii; A. baumannii 49; read-out: MIC90
# Experimental: as §1, §2, §3, §4
# K. pneumoniae 2011E = conditions: Klebsiella pneumoniae, 2011E, K. pneumoniae 2011E; read-out: MIC90
# Experimental: as §1, §2, §3, §4
# [1] = tested on: A. calcoaceticus ATCC15473; conditions: Acinetobacter calcoaceticus; A. calcoaceticus ATCC15473; read-out: MIC90
# Experimental: as §1, §2, §3, §4
# E. coli AG100 = conditions: Escherichia coli, AG100, E. coli AG100; read-out: MIC90
# Experimental: as §1, §2, §3, §4
# M. catarrhalis 2524 = conditions: Moraxella catarrhalis; M. catarrhalis 2524; read-out: MIC90
# Experimental: as §1, §2, §3, §4
# P. aeruginosa 40 = conditions: Pseudomonas aeruginosa, 40, P. aeruginosa 40; read-out: MIC90
# Experimental: as §1, §2, §3, §4
# K. pneumoniae β9 = conditions: Klebsiella pneumoniae, K. pneumoniae β9; read-out: MIC90
# Experimental: as §1, §2, §3, §4
Structure (SMILES),MIC90 (K. pneumoniae β10) [mg/L],MIC90 (P. aeruginosa 43) [mg/L],MIC90 (K. pneumoniae β14) [mg/L],MIC90 (P. aeruginosa 37) [mg/L],MIC90 (E. cloacae β19) [mg/L],MIC90 (E. coli β4) [mg/L],MIC90 (A. baumannii 46) [mg/L],MIC90 (P. aeruginosa 1912E) [mg/L],MIC90 (P. aeruginosa 6065Y) [mg/L],MIC90 (A. baumannii 52) [mg/L],MIC90 (K. pneumoniae β13) [mg/L],MIC90 (K. pneumoniae β11) [mg/L],MIC90 (A. baumannii 49) [mg/L],MIC90 (K. pneumoniae 2011E) [mg/L],MIC90 [1] [mg/L],MIC90 (E. coli AG100) [mg/L],MIC90 (M. catarrhalis 2524) [mg/L],MIC90 (P. aeruginosa 40) [mg/L],MIC90 (K. pneumoniae β9) [mg/L]
CC(C)(O/N=C(\C(=O)N[C@@H]1C(=O)N2C(C(=O)[O-])=C(C[n+]3cnc(N)c(NCCNC(=O)c4cc(=O)c(O)cn4O)c3)CSC12)c1nsc(N)n1)C(=O)O (some centres unmarked) [Compound 16],2,2,128,0.5,16,4,2,1,2,32,32,> 128,> 128,8,0.25,1,1,0.25,128
C[C@H](O/N=C(\C(=O)N[C@@H]1C(=O)N2C(C(=O)[O-])=C(C[n+]3cnc(N)c(NCCNC(=O)c4cc(=O)c(O)c[nH]4)c3)CSC12)c1nc(N)sc1Cl)C(=O)O (some centres unmarked) [Compound 17],4,2,32,8,2,4,16,2,2,2,1,32,4,4,0.5,1,0.125,8,1
CC(C)(O/N=C(\C(=O)N[C@@H]1C(=O)N2C(C(=O)[O-])=C(C[n+]3cnc(N)c(NC(=O)CCNC(=O)c4cc(=O)c(O)cn4O)c3)CSC12)c1nc(N)sc1Cl)C(=O)O (some centres unmarked) [Compound 18],4,0.25,128,0.25,64,16,128,1,2,2,4,64,8,16,1,2,0.5,2,8
CC(C)(O/N=C(\C(=O)N[C@@H]1C(=O)N2C(C(=O)[O-])=C(C[n+]3cnc(N)c(NC(=O)CCNC(=O)c4cc(=O)c(O)cn4O)c3)CSC12)c1nsc(N)n1)C(=O)O (some centres unmarked) [Compound 19],1,2,128,0.5,128,16,4,2,2,8,16,> 128,16,16,0.5,1,1,0.5,64
C[C@H](O/N=C(\C(=O)N[C@@H]1C(=O)N2C(C(=O)[O-])=C(C[n+]3cnc(N)c(NC(=O)CCNC(=O)c4cc(=O)c(O)cn4O)c3)CSC12)c1nc(N)sc1Cl)C(=O)O (some centres unmarked) [Compound 20],0.5,1,64,2,8,8,16,4,1,2,1,16,32,8,1,0.25,0.5,4,2
